Measurements reported in the supplement of paper PMC10307832.

Assays:
Assay in all cases: relative viability (nuclei count vs DMSO), 5 days (fraction); higher = more cells survive
Irinotecan + Alpelisib = compound: CCc1c2c(nc3ccc(OC(=O)N4CCC(N5CCCCC5)CC4)cc13)-c1cc3c(c(=O)n1C2)COC(=O)[C@]3(O)CC [Irinotecan] + Cc1nc(NC(=O)N2CCC[C@H]2C(N)=O)sc1-c1ccnc(C(C)(C)C(F)(F)F)c1 [Alpelisib] (partner 2 µM)
How it was run: (§1)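 Cells from lung cancer lines were seeded into 1536-well plates and, one day later, dosed by pin tool. Treatments were either a single drug or a fixed dose of an anchor drug with five library-drug doses (not always all listed) in √10 steps. After 5 days, nuclei were stained in a one-step fixation (final 0.05% Triton X-100, 1% formaldehyde, 1 ug/ml Hoechst) and counted on 4× images, and relative viability is the treated-to-vehicle nuclei ratio, as the median of duplicate plates.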

Irinotecan + Vorinostat = compound: CCc1c2c(nc3ccc(OC(=O)N4CCC(N5CCCCC5)CC4)cc13)-c1cc3c(c(=O)n1C2)COC(=O)[C@]3(O)CC [Irinotecan] + O=C(CCCCCCC(=O)Nc1ccccc1)NO [Vorinostat] (partner 1 µM)
How it was run: as §1

MK-8033 + Tozasertib = compound: Cn1cc(-c2cnc3ccc4ccc(CS(=O)(=O)NCc5ccccn5)cc4c(=O)c3c2)cn1 [MK-8033] + Cc1cc(Nc2cc(N3CCN(C)CC3)nc(Sc3ccc(NC(=O)C4CC4)cc3)n2)n[nH]1 [Tozasertib] (partner 0.1 µM)
How it was run: as §1

MK-8033 + Dasatinib = compound: Cn1cc(-c2cnc3ccc4ccc(CS(=O)(=O)NCc5ccccn5)cc4c(=O)c3c2)cn1 [MK-8033] + Cc1nc(Nc2ncc(C(=O)Nc3c(C)cccc3Cl)s2)cc(N2CCN(CCO)CC2)n1 [Dasatinib] (partner 0.075 µM)
How it was run: as §1

| Cell Line | relative viability (Irinotecan + Alpelisib; first compound 0.6325 µM) | relative viability (Irinotecan + Alpelisib; first compound 2 µM) | relative viability (Irinotecan + Alpelisib; first compound 6.325 µM) | relative viability (Irinotecan + Alpelisib; first compound 20 µM) | relative viability (Irinotecan + Vorinostat; first compound 0.6325 µM) | relative viability (Irinotecan + Vorinostat; first compound 2 µM) | relative viability (Irinotecan + Vorinostat; first compound 6.325 µM) | relative viability (Irinotecan + Vorinostat; first compound 20 µM) | relative viability (MK-8033 + Tozasertib; first compound 0.02 µM) | relative viability (MK-8033 + Tozasertib; first compound 0.06325 µM) | relative viability (MK-8033 + Tozasertib; first compound 0.2 µM) | relative viability (MK-8033 + Tozasertib; first compound 0.6325 µM) | relative viability (MK-8033 + Tozasertib; first compound 2 µM) | relative viability (MK-8033 + Dasatinib; first compound 0.02 µM) | relative viability (MK-8033 + Dasatinib; first compound 0.06325 µM) | relative viability (MK-8033 + Dasatinib; first compound 0.2 µM) | relative viability (MK-8033 + Dasatinib; first compound 0.6325 µM) | relative viability (MK-8033 + Dasatinib; first compound 2 µM) |
| --- | --- | --- | --- | --- | --- | --- | --- | --- | --- | --- | --- | --- | --- | --- | --- | --- | --- | --- |
| NCI-H2347 | 0.858 | 0.763 | 0.482 | 0.464 | 0.435 | 0.631 | 0.514 | 0.548 | 0.545 | 0.574 | 0.584 | 0.552 | 0.436 | 0.288 | 0.317 | 0.314 | 0.362 | 0.354 |
| LU99A | 0.219 | 0.23 | 0.225 | 0.219 | 0.305 | 0.169 | 0.124 | 0.127 | 0.268 | 0.262 | 0.281 | 0.268 | 0.269 | 0.61 | 0.442 | 0.626 | 0.542 | 0.445 |
| NCI-H1915 | 0.3 | 0.217 | 0.164 | 0.155 | 0.307 | 0.329 | 0.168 | 0.147 | 0.435 | 0.424 | 0.391 | 0.439 | 0.362 | 0.298 | 0.273 | 0.309 | 0.309 | 0.303 |
| H3255 | 0.665 | 0.409 | 0.321 | 0.272 |  | 0.782 | 0.343 | 0.311 | 0.581 | 0.501 | 0.554 | 0.609 | 0.602 | 0.366 | 0.347 | 0.299 | 0.319 | 0.438 |
| BEN | 1.11 | 0.771 | 0.319 | 0.372 | 0.544 | 0.726 | 0.473 | 0.545 | 0.544 | 0.491 | 0.461 | 0.492 | 0.545 | 0.343 | 0.289 | 0.318 | 0.326 | 0.307 |
| NCI-H23 | 0.519 | 0.421 | 0.246 | 0.243 | 0.467 | 0.451 | 0.234 | 0.199 | 0.362 | 0.399 | 0.253 | 0.415 | 0.429 | 0.844 | 0.827 | 0.64 | 0.928 | 0.587 |
| NCI-H1944 | 0.58 | 0.271 | 0.168 | 0.167 | 0.386 | 0.36 | 0.223 | 0.166 | 0.237 | 0.218 | 0.209 | 0.261 | 0.23 | 0.205 | 0.201 | 0.221 | 0.202 | 0.234 |
| NCI-H441 | 0.68 | 0.513 | 0.336 | 0.5 | 0.443 | 0.305 | 0.233 | 0.197 | 0.578 | 0.568 | 0.62 | 0.605 | 0.475 | 0.511 | 0.603 | 0.494 | 0.835 | 0.405 |
| NCI-H1437 | 0.75 | 0.67 | 0.262 | 0.147 | 0.537 | 0.54 | 0.407 | 0.28 | 0.408 | 0.424 | 0.401 | 0.395 | 0.372 | 0.493 | 0.419 | 0.402 | 0.361 | 0.419 |
| HARA | 0.557 | 0.211 | 0.215 | 0.177 |  | 0.146 | 0.122 | 0.135 | 0.104 | 0.0979 | 0.111 | 0.136 | 0.112 | 0.28 | 0.255 | 0.223 | 0.188 | 0.258 |
| LOU-NH91 | 0.663 | 0.596 | 0.422 | 0.301 | 0.837 | 0.875 | 0.315 | 0.147 | 0.653 | 0.406 | 0.644 | 0.644 | 0.678 | 0.534 | 0.388 | 0.537 | 0.57 | 0.544 |
| COR-L 105 | 1.08 | 1.18 | 0.648 | 0.444 | 0.856 | 0.643 | 0.621 | 0.334 | 0.311 | 0.377 | 0.338 | 0.349 | 0.345 | 0.368 | 0.303 | 0.328 | 0.335 | 0.402 |
| NCI-H838 | 1.28 | 0.962 | 0.354 | 0.295 | 0.776 | 0.703 | 0.378 | 0.301 | 0.297 | 0.272 | 0.281 | 0.266 | 0.236 | 0.258 | 0.281 | 0.259 | 0.279 | 0.247 |
| NCI-H1975 | 0.654 | 0.68 | 0.324 | 0.195 | 0.714 | 0.708 | 0.378 | 0.269 | 0.725 | 0.608 | 0.677 |  | 0.352 | 0.329 | 0.344 | 0.357 |  | 0.343 |
| SK-MES-1 | 0.997 | 0.877 | 0.426 | 0.267 | 0.821 | 0.756 | 0.372 | 0.193 | 0.902 | 0.825 | 0.872 | 0.886 | 0.822 | 0.347 | 0.337 | 0.427 | 0.365 | 0.411 |
| NCI-H2170 | 0.929 | 0.399 | 0.3 | 0.216 | 0.864 | 0.753 | 0.327 | 0.102 | 0.662 | 0.702 | 0.634 | 0.695 | 0.628 | 0.681 | 0.553 | 0.604 | 0.581 | 0.481 |
| NCI-H647 | 0.816 | 0.435 | 0.197 | 0.202 | 0.679 | 0.398 | 0.139 | 0.0969 | 0.276 | 0.212 | 0.258 | 0.0983 | 0.282 | 0.164 | 0.164 | 0.188 | 0.197 | 0.173 |
| A-427 |  | 0.19 | 0.176 | 0.185 | 0.738 | 0.785 | 0.384 | 0.33 | 0.225 | 0.213 | 0.209 | 0.17 | 0.194 | 0.677 | 0.701 | 0.661 | 0.731 | 0.67 |
| HCC-366 | 0.404 | 0.187 | 0.0425 | 0.0448 | 0.145 | 0.137 | 0.0609 | 0.069 | 0.114 | 0.131 | 0.0893 | 0.102 | 0.0504 | 0.617 | 0.638 | 0.564 | 0.634 | 0.651 |
| CAL-12T | 1.08 | 1.19 | 0.422 | 0.309 | 0.733 | 0.592 | 0.403 | 0.259 | 0.317 | 0.29 | 0.28 | 0.311 | 0.266 | 0.478 | 0.3 | 0.405 | 0.367 | 0.456 |
